Assay results published in the supplement of paper PMC9386025.

Tests used:
Assay in all cases: drug sensitivity score (DSS) (DSS (dimensionless)); higher = more sensitive (stronger drug response)
FIMM-PDC4 = patient-derived ovarian cancer cells; conditions: genetic perturbation: none (patient-derived cell culture)
How it was run: (§1)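 Cells, either patient-derived cultures or ovarian cancer cell lines given 100 ng/ml doxycycline for no less than three days to induce shRNA, went into 384-well plates at 1 000 – 1 500 per well over drugs pre-plated in five concentrations across a 10,000-fold range. The plates were held for three days at 37 °C with 5.0 % CO2. Cell viability was then taken from CellTiter-Glo luminescence on a PHERAstar FS. For each drug, a drug sensitivity score from its dose-response curve was obtained by a method described earlier.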

FIMM-PDC6 = patient-derived ovarian cancer cells; conditions: genetic perturbation: none (patient-derived cell culture)
How it was run: as §1

FIMM-PDC3 = patient-derived ovarian cancer cells; conditions: genetic perturbation: none (patient-derived cell culture)
How it was run: as §1

FIMM-PDC7 = patient-derived ovarian cancer cells; conditions: genetic perturbation: none (patient-derived cell culture)
How it was run: as §1

FIMM-PDC5 = patient-derived ovarian cancer cells; conditions: genetic perturbation: none (patient-derived cell culture)
How it was run: as §1

OVSAHO = tested on: OVSAHO
How it was run: as §1

FIMM-PDC1 = patient-derived ovarian cancer cells; conditions: genetic perturbation: none (patient-derived cell culture)
How it was run: as §1

JHOS2 = tested on: JHOS2
How it was run: as §1

Kuramochi = tested on: Kuramochi
How it was run: as §1

[1] = genetic perturbation: DOX-induced PTK7 shRNA knockdown
[2] = genetic perturbation: DOX-induced control shRNA

Structure (SMILES)	drug sensitivity score (FIMM-PDC4)	drug sensitivity score (FIMM-PDC6)	drug sensitivity score (FIMM-PDC3)	drug sensitivity score (FIMM-PDC7)	drug sensitivity score (FIMM-PDC5)	drug sensitivity score (OVSAHO; [1])	drug sensitivity score (OVSAHO; [2])	drug sensitivity score (FIMM-PDC1)	drug sensitivity score (JHOS2; [1])	drug sensitivity score (JHOS2; [2])	drug sensitivity score (Kuramochi; [1])	drug sensitivity score (Kuramochi; [2])
COc1cccc2c1C(=O)c1c(O)c3c(c(O)c1C2=O)C[C@@](O)(C(=O)CO)C[C@@H]3O[C@H]1C[C@H](N)[C@H](O)[C@H](C)O1 [Doxorubicin]	6.8	3.7	6.4	6.6	5.4	5.8	4.7	4.7	7	7.6	5.1	5
Cc1nn(C)c(COc2ccc(N3CCN(S(=O)(=O)N(C)C)CC3)cc2)c1-c1cccc2c(CCCOc3cccc4ccccc34)c(C(=O)O)n(CCN3CCOCC3)c12	7.2	4.6	8.8	6.5	4.9	10.1	4.9	5.7	7.3	3.4	6.25	5.8
CCNCCS(=O)(=O)NC[C@@]1(c2ccccc2)SC(NC(=O)C(C)(C)C)=NN1C(=O)C(C)(C)C [Litronesib]	15.2	2.8	11.2	4.3	21.2	8.2	9.3	7.8	8.5	7.7	10.7	3.1
Cc1noc2c1-c1ccccc1C(c1ccc(Cl)cc1)=N[C@H]2CC(N)=O [CPI-0610]	3.9	3.1	3.7	5.5	8.7	7	9.5	2.1	5.9	4.2	10.5	6.1
COC(=O)C[C@](O)(CCCC(C)(C)O)C(=O)O[C@@H]1C(OC)=C[C@]23CCCN2CCc2cc4c(cc2[C@H]13)OCO4 [Omacetaxine]	22.9	25.3	27.2	23.8	21.3	21.7	21.7	23.7	20.8	21.6	23.8	14.3
Cc1cnc(Nc2ccc(OCCN3CCCC3)cc2)nc1Nc1cccc(S(=O)(=O)NC(C)(C)C)c1 [Fedratinib]	7	3	4.3	2.9	10.7	7.2	8.8	3.65	8.5	9.1	8.8	8.7
O=C(NOC[C@H](O)CO)c1ccc(F)c(F)c1Nc1ccc(I)cc1F	9.4	3.9	3	3.1	7.8	4.6	4.2	< 0	0.6	6.2	5.9	4
Cc1cc(Nc2cc(CN3CCOCC3)c3nc(C)c(Cc4ccc(Cl)cc4F)n3n2)n[nH]1 [Gandotinib]	7.4	4.6	7.1	7.2	8.6	6.6	5.1	5.25	7	2.7	5.2	5.6
CCc1cnn2c(NCc3ccc[n+]([O-])c3)cc(N3CCCC[C@H]3CCO)nc12 [Dinaciclib]	20.3	22.5	17.5	22.4	24.6	24.8	16.4	20.8	17.4	19.6	18.5	15.9
Nc1ccccc1NC(=O)c1ccc(CNc2nccc(-c3cccnc3)n2)cc1 [Mocetinostat]	7.1	8.7	9.7	7.5	12.3	10	3.8	6.35	8	3.4	9.95	4.1
COc1cc(Br)c(Nc2nc(-c3c(C)nc4ncccn34)cs2)c(Br)c1 [PTC-209]	2.2	4.3	10	6.3	4.6	1.5	2.3	6.1	3.7	9.7	3	1.5
Cn1c(=O)n(-c2ccc(C(C)(C)C#N)cc2)c2c3cc(-c4cnc5ccccc5c4)ccc3ncc21 [Dactolisib]	17.2	19	11.1	17	21.6	11.8	13.8	10.1	10.3	14.1	11.7	11.9
CO[C@H]1C[C@@H]2CC[C@@H](C)[C@@](O)(O2)C(=O)C(=O)N2CCCC[C@H]2C(=O)O[C@H]([C@H](C)C[C@@H]2CC[C@@H](OCCO)[C@H](OC)C2)CC(=O)[C@H](C)/C=C(\C)[C@@H](O)[C@@H](OC)C(=O)[C@H](C)C[C@H](C)/C=C/C=C/C=C/1C [Everolimus]	5.3	< 0	2.7	0.4	8.3	0.9	6.2	< 0	< 0	3	4.1	2.2
CN(C)Cc1c(C(=O)NCCOc2ccc(C(=O)NO)cc2)oc2ccccc12 [Abexinostat]	8.7	14.3	13.3	11.7	16.2	14.6	11.9	12.7	14.4	13.3	18.5	8.6
C[C@@H]1COC(Nc2ccc3ncnc(Nc4ccc(OCc5nccs5)c(Cl)c4)c3c2)=N1 [Varlitinib]	9.5	5.2	8.6	6.9	12.6	1.2	< 0	1.1	< 0	< 0	0.05	< 0
CN1CCN(CCOc2cc(OC3CCOCC3)c3c(Nc4c(Cl)ccc5c4OCO5)ncnc3c2)CC1 [Saracatinib]	13.7	9.4	12	5.8	15.2	12.4	6.6	4.6	1.4	7.3	10.6	5.2

Structure (SMILES)	drug sensitivity score (FIMM-PDC4)	drug sensitivity score (FIMM-PDC6)	drug sensitivity score (FIMM-PDC3)	drug sensitivity score (FIMM-PDC7)	drug sensitivity score (FIMM-PDC5)	drug sensitivity score (OVSAHO; [1])	drug sensitivity score (OVSAHO; [2])	drug sensitivity score (FIMM-PDC1)	drug sensitivity score (JHOS2; [1])	drug sensitivity score (JHOS2; [2])	drug sensitivity score (Kuramochi; [1])	drug sensitivity score (Kuramochi; [2])
COC[C@H](NC(=O)c1cnc(C)s1)C(=O)N[C@@H](COC)C(=O)N[C@@H](Cc1ccccc1)C(=O)[C@@]1(C)CO1 [Oprozomib]	15.9	24.9	23.6	19	11.6	17.3	10.2	19.5	23.6	17	12.6	18.3
O=C(c1cc(Cc2n[nH]c(=O)c3ccccc23)ccc1F)N1CCN(C(=O)C2CC2)CC1 [Olaparib]	3.8	9.2	1.5	6.1	6.1	3.5	2.5	3.45	6.6	3.2	3.35	2.6
COc1cc(Nc2ncc(F)c(Nc3ccc4c(n3)NC(=O)C(C)(C)O4)n2)cc(OC)c1OC [Tamatinib]	6.4	1.6	3.8	8.6	12.9	7	1.1	< 0	4.2	0.1	2.9	1.1
CN[C@@H]1C[C@H]2O[C@@](C)([C@@H]1OC)n1c3ccccc3c3c4c(c5c6ccccc6n2c5c31)C(=O)N[C@H]4O [UCN-01]	26.4	24	22.2	28.4	29.6	24.7	15.2	26.5	21.2	21.5	12.3	16.2
O=C(/C=C/c1cccc(S(=O)(=O)Nc2ccccc2)c1)NO [Belinostat]	5.5	13	14.1	10	12.3	15.2	9.7	9.65	13	9.4	17.6	7.6
CCOc1ccccc1-n1c(C(C)N2CCN(C(=O)COc3ccc(Cl)cc3)CC2)nc2ccccc2c1=O (centres undefined) [Erastin]	< 0	< 0	17	3.3	< 0	12.9	4.7	0.85	14.6	16.2	4.8	8.5
CCNC(=O)c1noc(-c2cc(C(C)C)c(O)cc2O)c1-c1ccc(CN2CCOCC2)cc1 [Luminespib]	26	15.3	14.5	19	22.8	< 0	11.3	13.9	15.6	12.9	13.7	4.1
CCn1c(-c2nonc2N)nc2c(C#CC(C)(C)O)ncc(OC[C@H]3CCCNC3)c21	7.2	5.7	1.5	11.5	8.3	< 0	4.8	7.3	< 0	0.5	0.9	< 0
CNC(=O)c1ccccc1Nc1cc(Nc2ccc(N3CCOCC3)cc2OC)ncc1C(F)(F)F [VS-4718]	9.2	10.3	3.8	5.4	8	5.7	9.9	5.4	5.9	3.7	10.8	4.8
Nc1cc(F)ccc1NC(=O)c1ccc(CNC(=O)/C=C/c2cccnc2)cc1 [Tucidinostat]	3.5	6.3	7.7	7.4	7.3	6.5	2.1	5.9	2	2.1	6.65	1.5
CO[C@H]1C[C@@H]2CC[C@@H](C)[C@@](O)(O2)C(=O)C(=O)N2CCCC[C@H]2C(=O)O[C@H]([C@H](C)C[C@@H]2CC[C@@H](OP(C)(C)=O)[C@H](OC)C2)CC(=O)[C@H](C)/C=C(\C)[C@@H](O)[C@@H](OC)C(=O)[C@H](C)C[C@H](C)/C=C/C=C/C=C/1C [Ridaforolimus]	5	3.2	4.5	11.4	9.5	0.4	5.3	1.65	< 0	4.1	2.5	0.7
CCc1c2c(nc3ccc(O)cc13)-c1cc3c(c(=O)n1C2)COC(=O)[C@]3(O)CC [SN-38]	19.2	28.9	26.6	21.3	29.7	21	16.4	23.5	26.1	22.5	21	8.6
CN1CCN(C2CCC(n3cc(-c4ccc(Oc5ccccc5)cc4)c4c(N)ncnc43)CC2)CC1 (centres undefined)	18.6	14.7	14.6	7	18.4	18.9	10.8	5.85	9.9	11.5	16.8	12
COc1cc2c(cc1OC(C)C)[C@H](c1ccc(Cl)cc1)N(c1ccc(N(C)C[C@H]3CC[C@H](N4CCN(C)C(=O)C4)CC3)cc1)C(=O)C2 [NVP-CGM097]	9.2	10.9	7.4	10	15.4	5.2	8.5	5.45	5.9	6.1	5.75	8
CN(C)c1cc2c(cc1Sc1nc3c(N)nccc3n1CCNCC(C)(C)C)OCO2 [CUDC-305]	15.8	11.6	9.8	12.7	12.8	< 0	6.3	11.5	11.5	9.9	7.3	0.8
Cc1cc(-c2nc(-c3ccc(OC(F)(F)F)cc3)no2)nn1Cc1ccnc(N2CCN(C3CC3)CC2)c1 [BAY 87-2243]	1.5	8.3	0.9	< 0	< 0	< 0	3.5	< 0	1.3	< 0	5.7	< 0
